For experiment [1], the target named is T1, Recombinant human LOXL2 (lysyl oxidase like 2) (Homo sapiens, UniProt Q9Y4K0).
T1 construct: purchased R&D systems
T1 sequence (Q9Y4K0 26-774): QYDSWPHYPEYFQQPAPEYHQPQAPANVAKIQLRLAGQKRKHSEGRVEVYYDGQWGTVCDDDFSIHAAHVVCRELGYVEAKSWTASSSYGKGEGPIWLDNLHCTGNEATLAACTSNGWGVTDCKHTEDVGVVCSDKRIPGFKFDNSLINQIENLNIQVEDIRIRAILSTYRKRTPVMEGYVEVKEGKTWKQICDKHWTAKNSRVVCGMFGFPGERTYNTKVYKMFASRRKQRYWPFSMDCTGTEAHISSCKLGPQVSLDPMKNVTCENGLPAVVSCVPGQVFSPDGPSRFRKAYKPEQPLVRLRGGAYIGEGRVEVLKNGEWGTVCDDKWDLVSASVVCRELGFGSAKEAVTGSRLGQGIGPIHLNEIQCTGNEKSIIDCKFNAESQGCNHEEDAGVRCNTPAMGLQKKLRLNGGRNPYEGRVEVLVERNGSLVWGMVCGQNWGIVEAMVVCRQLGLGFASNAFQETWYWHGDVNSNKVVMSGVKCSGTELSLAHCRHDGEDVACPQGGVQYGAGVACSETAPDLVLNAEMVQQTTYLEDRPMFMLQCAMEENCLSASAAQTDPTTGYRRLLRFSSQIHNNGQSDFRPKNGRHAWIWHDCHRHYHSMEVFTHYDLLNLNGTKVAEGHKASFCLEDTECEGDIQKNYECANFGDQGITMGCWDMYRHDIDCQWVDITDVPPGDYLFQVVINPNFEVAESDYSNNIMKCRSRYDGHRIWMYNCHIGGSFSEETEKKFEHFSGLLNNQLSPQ
As to the kind of experiment: LOXL2 inhibition assay (fluorometric, cadaverine/Amplex Red/HRP). The conditions noted are these: IC50 class; recombinant human LOXL2, cadaverine substrate; read-out: Activity Range LOXL2. It is filed as biochemical. The procedure:
(§1) The ability of compounds to inhibit one or more of the lysyl oxidases LOXL2 and/or LOXL3 was determined using a fluorometric assay. This assay measures the activity of lysyl oxidases by coupling the reaction with horseradish peroxidase-catalyzed […]. The activity assay protocol uses cadaverine as substrate that releases hydrogen peroxide upon transformation by the specific LOX family enzyme present in the sample. Hydrogen peroxide is in turn detected using a red fluorescence substrate for HRP-coupled reactions (Amplex Red Enzyme Assays, Thermo Scientific Fisher). This leads to increase in fluorescence that can be easily detected at Ex/Em=540/590 nm in a fluorescence microplate reader.
Enzymes: Recombinant human LOXL2 (lysyl oxidase like 2) and recombinant human LOXL3 (lysyl oxidase like 3) were purchased from R&D systems and assays were performed in 1.2 M urea, 50 mM sodium borate buffer pH 8.0, and 10 mM CaCl.
Reaction: Final concentration in the LOXL2 and LOXL3 assays were as following and performed in a total volume of […]:
Experimental procedure: 5 μl of freshly prepared reaction buffer were delivered to reaction wells. Compounds were resuspended in 100% DMSO at 10 mM and delivered into buffer using acoustic technology (Echo550; nanoliter range). A 3× solution of LOXL2 or LOXL3 in reaction buffer was prepared (“enzyme solution”) and 5 μL of enzyme solution was added into the reaction wells. Buffer only was added to column 1 for no protein control. Reactions were incubated for 30 minutes at 37° C. A 3×mixture of cadaverine, Amplex Red, and HRP (“Substrate/Detection Mix) was prepared and subsequently 5 μL of the mixture added to each reaction well. Progress of reactions was monitored for 60 minutes at 37° C. using Clariostar plate reader (ex 530-12, ems 600-40). For all activity assays, pan-LOX inhibitor CCT365623 (Tang et al, 2017) and LOXL2/LOXL3 inhibitor PAT-1251 (PharmaKea) were included as standards.
Data analysis: Slope of the linear portion of the progress curve was calculated using Clariostar software. Typical analysis interval was between 8-30 min, but varied between experiments. The background subtracted signals (No protein wells are considered as background) were converted to % activity relative to DMSO controls. Data was analyzed using GraphPad Prism 4 with “sigmoidal dose-response (variable slope)”; 4 parameters with Hill Slope. Constraints: Bottom=Constant equal to 0. Top=Must be less than 120.

For experiment [2], the target named is T2, Bovine lysyl oxidase (LOX) (Bos taurus, UniProt P33072).
T2 construct: from tissue; host or cells: adult bovine tendon
T2 sequence (P33072 170-418): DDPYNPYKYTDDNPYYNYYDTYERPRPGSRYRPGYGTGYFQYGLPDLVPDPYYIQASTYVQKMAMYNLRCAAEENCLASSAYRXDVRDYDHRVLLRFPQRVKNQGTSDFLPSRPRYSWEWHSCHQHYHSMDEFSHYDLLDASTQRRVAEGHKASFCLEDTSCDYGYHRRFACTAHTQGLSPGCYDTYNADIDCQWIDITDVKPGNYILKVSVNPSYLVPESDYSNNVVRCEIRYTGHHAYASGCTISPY
The experiment in a line: LOX inhibition assay (fluorometric, cadaverine/Amplex Red/HRP). As to conditions: IC50 class; bovine tendon LOX, cadaverine substrate; read-out: Activity Range LOX. It is filed as biochemical. The procedure:
as §1, with “prototypic LOX” for “one or more of the lysyl oxidases LOXL2 and/or LOXL3”, “prototypic” for “the specific”, “LOX” for “LOX family”
Enzyme: Bovine lysyl oxidase (LOX) was extracted by adapting the methodology from [Kagan et al. 1979 and Borel et al. 2001.] from bovine tendon: Frozen adult bovine tendon was placed in room temperature water to defrost, and then membranes were removed and the remaining tissue cut into 1 cm pieces. The material was first passed through a course mesh meat grinder, and this mince was passed through a fine mesh grinder. The mince was homogenized in 10 v/w of buffer (16 mM sodium phosphate buffer pH 7.8, 400 mM NaCl) using a Waring blender. The homogenate was centrifuged at 15,000×g for 15 min at 4° C. After centrifugation, the supernatant was discarded and the pellets resuspended in 10 volumes of the same buffer. The mixture was blended again and centrifuged with the same settings. This time the pellets were blended in 3 volumes of extraction buffer (16 mM sodium phosphate buffer pH 7.8) and left to incubate at 4° C. for 2 h. After this time, the slurry was centrifuged with the same settings as described above. The supernatant was used in an ultrafiltration step to remove large proteins by size exclusion through a 30 kDalton filter (EMD Millipore). The filtrate was mixed with DEAE Sephadex (GE Healthcare), or passed over a MonoQ FPLC column. After two washes, one in 16 mM sodium phosphate buffer pH 7.8, 380 mM NaCl, and another in 16 mM sodium phosphate buffer pH 7.8, the proteins were eluted with 16 mM sodium phosphate pH 7.8, 10 μM CuSO4, and 4 M urea. Fractions containing Lox activity were collected and stored frozen at −70° C.
Reaction: Final concentration in the LOX assay was as following and performed in a total volume of […]:
Experimental procedure: 7 μl of freshly prepared reaction buffer were delivered to reaction wells. Compounds were resuspended in 100% DMSO at 10 mM and delivered into buffer using acoustic technology (Echo550; nanoliter range). A 2.85× solution of LOX protein in reaction buffer was prepared (“LOX solution”) and 7 μl of LOX solution was added into the reaction wells. Buffer only was added to column 1 for no protein control. Reactions were incubated for 30 minutes at 37° C. A 3.33× mixture of cadaverine, Amplex Red, and HRP (“Substrate/Detection Mix) was prepared and subsequently 6 μL of the mixture was added to each reaction well. Progress of reactions was monitored for 120 minutes at 37° C. using Clariostar plate reader (ex530-12, ems 600-40). For all activity assays, pan-LOX inhibitor CCT365623 (Tang et al, 2017) and LOXL2/LOXL3 inhibitor PAT-1251 (PharmaKea) were included as standards.
Data analysis: Slope of the linear portion of the progress curve was calculated using Clariostar software. Typical analysis interval was between 20-50 min, but varied between experiments. The background subtracted signals (No protein wells were considered as background) were converted to % activity relative to DMSO controls. Data was analyzed using GraphPad Prism 4 with “sigmoidal dose-response (variable slope)”; 4 parameters with Hill Slope. Constraints: Bottom=Constant equal to 0. Top=Must be less than 120.

pIC50: −log10 of the molar value.

For the compound `NCc1ccnc(S(=O)(=O)N2C[C@@H](C(=O)N3CCOCC3)C[C@@H](N3CCOCC3)C2)c1` (racemic) [Example 155, cis-(1-((4-(Aminomethyl)pyridin-2-yl)sulfonyl)-5-morpholinopiperidin-3-yl)(morpholino)methanone 2,2,2-trifluoroacetate], the pIC50 in experiment [1] is 6.00 to 6.30; in experiment [2], 4.52 to 6.00.

`NCc1cccc(S(=O)(=O)N2C[C@H](C(=O)N3CCOCC3)C[C@@H](C(F)(F)F)C2)c1` (racemic) [Example 110]: the results for the pIC50 in experiment [1] and in experiment [2] were 4.52 to 6.00 and less than 4.52, respectively.

`NCc1cccc(S(=O)(=O)[C@H]2C[C@@H](C(=O)N3CCS(=O)(=O)CC3)CN(C3CCCCC3)C2)c1` (racemic) [Example 143, cis-(5-((3-(Aminomethyl)phenyl)sulfonyl)-1-cyclohexylpiperidin-3-yl)(1,1-dioxidothiomorpholino)methanone 2,2,2-trifluoroacetate]: the pIC50 was no less than 6.30 in experiment [1] and less than 4.52 in experiment [2].

For the compound `CC(N)c1cccc(S(=O)(=O)N2C[C@@H](C(=O)N3CCOCC3)C[C@@H](c3ccccc3)C2)c1` (mixture of isomers) [Example 102RAC, cis-(1-((3-(1-Aminoethyl)phenyl)sulfonyl)-5-phenylpiperidin-3-yl)(morpholino)methanone 2,2,2-trifluoroacetate], the pIC50 in experiment [1] and in experiment [2] was less than 4.52 in each case.

Turning to `CS(=O)(=O)N1C[C@@H](c2ccccc2)C[C@@H](S(=O)(=O)c2ccc(CN)cc2)C1` (racemic) [Example 26, cis-(4-((1-(Methylsulfonyl)-5-phenylpiperidin-3-yl)sulfonyl)phenyl)methanamine 2,2,2-trifluoroacetate], the pIC50 in experiment [1] was no less than 6.30; in experiment [2], 4.52 to 6.00.

With `CS(=O)(=O)[C@@H]1C[C@H](Oc2ccc(CN)cc2)CN(c2ccccc2)C1` (racemic) [Example 20, cis-(4-((-5-(Methylsulfonyl)-1-phenylpiperidin-3-yl)oxy)phenyl)methanamine2,2,2-trifluoroacetate], the pIC50 in experiment [1] and in experiment [2] was 4.52 to 6.00 each time.

As for `NCc1ccc(S(=O)(=O)N2C[C@@H](C(=O)N3CCCCC3)C[C@@H](c3ccccc3)C2)s1` (racemic) [Example 11, cis-(1-((5-(Aminomethyl)thiophen-2-yl)sulfonyl)-5-phenylpiperidin-3-yl)(piperidin-1-yl)methanone 2,2,2-trifluoroacetate], the pIC50 in experiment [1] and in experiment [2] was no less than 6.30 throughout.

Take `CS(=O)(=O)N1C[C@@H](Oc2cc(CN)ccc2F)C[C@H](c2ccccc2)C1` (racemic) [Example 90, trans-(4-Fluoro-3-((-1-(methylsulfonyl)-5-phenylpiperidin-3-yl)oxy)phenyl)Methanamine 2,2,2-trifluoroacetate]: the pIC50 is 6.00 to 6.30 in experiment [1] and less than 4.52 in experiment [2].

For `NCc1cnc(S(=O)(=O)N2C[C@@H](C(=O)N3CCS(=O)(=O)CC3)C[C@@H](c3ccccc3)C2)s1` (racemic) [Example 112, cis-(1-((5-(Aminomethyl)thiazol-2-yl)sulfonyl)-5-phenylpiperidin-3-yl)(1,1-dioxidothiomorpholino)methanone 2,2,2-trifluoroacetate], the pIC50 in experiment [1] was no less than 6.30; in experiment [2], 4.52 to 6.00.

In the case of `CS(=O)(=O)N1C[C@H](Oc2ccc(CN)cc2)C[C@H](c2ccccc2)C1` (racemic) [Example 24, cis-(4-((1-(Methylsulfonyl)-5-phenylpiperidin-3-yl)oxy)phenyl)methanamine 2,2,2-trifluoroacetate], the pIC50 in experiment [1] is 4.52 to 6.00; in experiment [2], less than 4.52.

As for `CS(=O)(=O)N1C[C@@H](Oc2cc(CN)ccc2F)C[C@H](c2ccccc2F)C1` (racemic) [Example 93, trans-(4-Fluoro-3-((-5-(2-fluorophenyl)-1-(methylsulfonyl)piperidin-3-yl)oxy)phenyl)methanamine 2,2,2-trifluoroacetate], the pIC50 is no less than 6.30 in experiment [1] and less than 4.52 in experiment [2].

On to `NCc1cccc(S(=O)(=O)N2C[C@@H](C(=O)N3CCOCC3)C[C@@H](c3ccccc3)C2)n1` (racemic) [Example 114, cis-(1-((6-(Aminomethyl)pyrid-2-yl)sulfonyl)-5-phenylpiperidin-3-yl)(morpholino)methanone], for which the pIC50 in experiment [1] was less than 4.52.
